Assay results reported in ChEMBL document CHEMBL1671764, “In vitro and in vivo activities of LCB01-0371, a new oxazolidinone” (2010).
The source made the active and inactive calls.

Experiments:
Staphylococcus [1] = experiment: Antibacterial activity against 10^4 to 10^5 CFU methicillin-resistant coagulase-negative Staphylococcus after 18 hrs by CLSI 2-fold agar dilution method; format: functional
Staphylococcus aureus [2] = experiment: Antibacterial activity against 1 x 10^8 CFU methicillin-resistant Staphylococcus aureus p125 after 18 hrs by CLSI 2-fold agar dilution method; format: functional; conditions: p125, 18 h
Staphylococcus aureus [3] = experiment: Antibacterial activity against methicillin-susceptible Staphylococcus aureus Giorgio assessed as bacteriostatic at MIC after 24 hrs by […] method; format: functional, organism-based
Staphylococcus aureus [4] = experiment: Antibacterial activity against methicillin-resistant Staphylococcus aureus p125 assessed as bacteriostatic at MIC after 24 hrs by […] method; format: functional, organism-based
Enterococcus faecium = experiment: Antibacterial activity against 10^4 to 10^5 CFU Enterococcus faecium after 18 hrs by CLSI 2-fold agar dilution method; format: functional
Staphylococcus aureus [5] = experiment: Antibacterial activity against 10^4 to 10^5 CFU methicillin-resistant Staphylococcus aureus after 18 hrs by CLSI 2-fold agar dilution method; format: functional
Staphylococcus aureus [6] = experiment: Antibacterial activity against methicillin-resistant Staphylococcus aureus p125 assessed as bacterial regrowth at 8 times MIC after 24 hrs by […] method; format: functional, organism-based
Moraxella catarrhalis = experiment: Antibacterial activity against 10^4 to 10^5 CFU Moraxella catarrhalis after 18 hrs by CLSI 2-fold agar dilution method; format: functional
Streptococcus pneumoniae [7] = experiment: Antibacterial activity against 10^4 to 10^5 CFU Streptococcus pneumoniae after 18 hrs by CLSI 2-fold agar dilution method; format: functional
Streptococcus pneumoniae [8] = experiment: Antibacterial activity against 1 x 10^4 CFU Streptococcus pneumoniae ATCC 6305 after 18 hrs by CLSI 2-fold agar dilution method; format: functional; conditions: ATCC 6305, 18 h
Staphylococcus [9] = experiment: Antibacterial activity against 10^4 to 10^5 CFU methicillin-susceptible coagulase-negative Staphylococcus after 18 hrs by CLSI 2-fold agar dilution method; format: functional
Enterococcus faecalis [10] = experiment: Antibacterial activity against 2 x 10^8 CFU Enterococcus faecalis u810 after 18 hrs by CLSI 2-fold agar dilution method; format: functional; conditions: u810, 18 h
Staphylococcus aureus [11] = experiment: Antibacterial activity against methicillin-susceptible Staphylococcus aureus Giorgio assessed as bacteriostatic at 4 times MIC after 24 hrs by […] method; format: functional, organism-based
Enterococcus = experiment: Antibacterial activity against 10^4 to 10^5 CFU vancomycin-resistant Enterococcus after 18 hrs by CLSI 2-fold agar dilution method; format: functional
Staphylococcus aureus [12] = experiment: Antibacterial activity against methicillin-resistant Staphylococcus aureus p125 assessed as bacteriostatic at 8 times MIC after 24 hrs by […] method; format: functional, organism-based
Staphylococcus aureus [13] = experiment: Antibacterial activity against methicillin-susceptible Staphylococcus aureus Giorgio assessed as bacterial regrowth at 4 times MIC after 24 hrs by […] method; format: functional, organism-based
Streptococcus pyogenes = experiment: Antibacterial activity against 10^4 to 10^5 CFU Streptococcus pyogenes after 18 hrs by CLSI 2-fold agar dilution method; format: functional
Staphylococcus aureus [14] = experiment: Antibacterial activity against methicillin-resistant Staphylococcus aureus p125 assessed as bacterial regrowth at 4 times MIC after 24 hrs by […] method; format: functional, organism-based
Enterococcus faecalis [15] = experiment: Antibacterial activity against 10^4 to 10^5 CFU Enterococcus faecalis after 18 hrs by CLSI 2-fold agar dilution method; format: functional
Staphylococcus aureus [16] = experiment: Antibacterial activity against 1 x 10^7 CFU methicillin-susceptible Staphylococcus aureus Giorgio after 18 hrs by CLSI 2-fold agar dilution method; format: functional
Staphylococcus aureus [17] = experiment: Antibacterial activity against methicillin-susceptible Staphylococcus aureus Giorgio assessed as bacteriostatic at 8 times MIC after 24 hrs by […] method; format: functional, organism-based
Staphylococcus aureus [18] = experiment: Antibacterial activity against methicillin-resistant Staphylococcus aureus p125 assessed as bacteriostatic at 4 times MIC after 24 hrs by […] method; format: functional, organism-based
Haemophilus influenzae [19] = experiment: Antibacterial activity against 7.5 x 10^8 CFU Haemophilus influenzae hd2 after 18 hrs by CLSI 2-fold agar dilution method; format: functional; conditions: hd2, 18 h
Haemophilus influenzae [20] = experiment: Antibacterial activity against 10^4 to 10^5 CFU Haemophilus influenzae after 18 hrs by CLSI 2-fold agar dilution method; format: functional
Staphylococcus aureus [21] = experiment: Antibacterial activity against methicillin-resistant Staphylococcus aureus p125 assessed as bacteriostatic at 2 times MIC after 24 hrs by […] method; format: functional, organism-based
Staphylococcus aureus [22] = experiment: Antibacterial activity against methicillin-susceptible Staphylococcus aureus Giorgio assessed as bacteriostatic at 2 times MIC after 24 hrs by […] method; format: functional, organism-based
Staphylococcus aureus [23] = experiment: Antibacterial activity against methicillin-susceptible Staphylococcus aureus Giorgio assessed as bacterial regrowth at 8 times MIC after 24 hrs by […] method; format: functional, organism-based
Staphylococcus aureus [24] = experiment: Antibacterial activity against 10^4 to 10^5 CFU methicillin-susceptible Staphylococcus aureus after 18 hrs by CLSI 2-fold agar dilution method; format: functional
Haemophilus influenzae [25] = experiment: Antibacterial activity against 7.5 x 10^8 CFU Haemophilus influenzae hd2 infected in ICR mouse systemic infection model assessed as mouse protection administered orally twice after 1 and 4 hrs post infection measured after 48 hrs; format: functional

CN1CCN(c2ccc(N3C[C@H](CO)OC3=O)cc2F)C=N1 [DELPAZOLID]
8 µg/mL: MIC90 (Moraxella catarrhalis) | MIC (Haemophilus influenzae [19]) | MIC50 (Haemophilus influenzae [20]) | MIC90 (Haemophilus influenzae [20])
active: Activity (Staphylococcus aureus [3]) | Activity (Staphylococcus aureus [4]) | Activity (Staphylococcus aureus [6]) | Activity (Staphylococcus aureus [11]) | Activity (Staphylococcus aureus [12]) | Activity (Staphylococcus aureus [13]) | Activity (Staphylococcus aureus [14]) | Activity (Staphylococcus aureus [17]) | Activity (Staphylococcus aureus [18]) | Activity (Staphylococcus aureus [21]) | Activity (Staphylococcus aureus [22]) | Activity (Staphylococcus aureus [23])
1 µg/mL: MIC (Staphylococcus aureus [2]) | MIC50 (Staphylococcus aureus [5]) | MIC90 (Streptococcus pneumoniae [7]) | MIC (Enterococcus) | MIC50 (Enterococcus) | MIC90 (Enterococcus) | MIC50 (Streptococcus pyogenes) | MIC (Staphylococcus aureus [16]) | MIC50 (Staphylococcus aureus [24])
4 µg/mL: MIC50 (Moraxella catarrhalis)
2 µg/mL: MIC50 (Enterococcus faecium) | MIC90 (Enterococcus faecium) | MIC90 (Staphylococcus aureus [5]) | MIC (Enterococcus faecalis [10]) | MIC90 (Streptococcus pyogenes) | MIC50 (Enterococcus faecalis [15]) | MIC90 (Enterococcus faecalis [15]) | MIC90 (Staphylococcus aureus [24])
0.5 µg/mL: MIC (Staphylococcus [1]) | MIC50 (Staphylococcus [1]) | MIC90 (Staphylococcus [1]) | MIC50 (Streptococcus pneumoniae [7]) | MIC (Streptococcus pneumoniae [8]) | MIC (Staphylococcus [9]) | MIC50 (Staphylococcus [9]) | MIC90 (Staphylococcus [9])

CC[C@H]1OC(=O)[C@H](C)[C@@H](O[C@H]2C[C@@](C)(OC)[C@@H](O)[C@H](C)O2)[C@H](C)[C@@H](O[C@@H]2O[C@H](C)C[C@H](N(C)C)[C@H]2O)[C@](C)(O)C[C@@H](C)C(=O)[C@H](C)[C@@H](O)[C@]1(C)O [ERYTHROMYCIN]
> 64 µg/mL: MIC50 (Staphylococcus [1]) | MIC50 (Enterococcus faecium) | MIC90 (Enterococcus faecium) | MIC50 (Staphylococcus aureus [5]) | MIC90 (Streptococcus pneumoniae [7]) | MIC90 (Staphylococcus [9]) | MIC50 (Enterococcus) | MIC90 (Enterococcus) | MIC50 (Enterococcus faecalis [15]) | MIC90 (Enterococcus faecalis [15]) | MIC90 (Haemophilus influenzae [20]) | MIC90 (Staphylococcus aureus [24])
64 µg/mL: MIC50 (Streptococcus pneumoniae [7]) | MIC (Haemophilus influenzae [20]) | MIC50 (Haemophilus influenzae [20])
2 µg/mL: MIC90 (Streptococcus pyogenes)
0.25 µg/mL: MIC50 (Staphylococcus [9]) | MIC50 (Staphylococcus aureus [24])
0.06 µg/mL: MIC50 (Streptococcus pyogenes)

CO/N=C1\CN(c2nc3c(cc2F)c(=O)c(C(=O)O)cn3C2CC2)CC1CN (stereo not given) [GEMIFLOXACIN]
0.5 µg/mL: MIC50 (Staphylococcus [1]) | MIC90 (Staphylococcus [9]) | MIC50 (Enterococcus)
64 µg/mL: MIC90 (Staphylococcus aureus [5])
1 µg/mL: MIC90 (Staphylococcus [1])
0.03 µg/mL: MIC50 (Streptococcus pneumoniae [7]) | MIC50 (Streptococcus pyogenes)
0.015 µg/mL: MIC50 (Staphylococcus [9]) | MIC50 (Staphylococcus aureus [24])
< 0.008 µg/mL: MIC50 (Moraxella catarrhalis) | MIC90 (Moraxella catarrhalis)
16 µg/mL: MIC90 (Enterococcus faecium)
0.125 µg/mL: MIC50 (Enterococcus faecalis [15])
0.06 µg/mL: MIC90 (Streptococcus pneumoniae [7]) | MIC90 (Streptococcus pyogenes) | MIC90 (Staphylococcus aureus [24])
0.008 µg/mL: MIC (Haemophilus influenzae [20]) | MIC50 (Haemophilus influenzae [20]) | MIC90 (Haemophilus influenzae [20])
2 µg/mL: MIC50 (Enterococcus faecium) | MIC50 (Staphylococcus aureus [5]) | MIC90 (Enterococcus)
4 µg/mL: MIC90 (Enterococcus faecalis [15])

CC(=O)NC[C@H]1CN(c2ccc(N3CCOCC3)c(F)c2)C(=O)O1 [LINEZOLID]
1 µg/mL: MIC (Staphylococcus [1]) | MIC50 (Staphylococcus [1]) | MIC90 (Staphylococcus [1]) | MIC50 (Streptococcus pneumoniae [7]) | MIC90 (Streptococcus pneumoniae [7]) | MIC (Staphylococcus [9]) | MIC50 (Staphylococcus [9])
2 µg/mL: MIC50 (Enterococcus faecium) | MIC90 (Enterococcus faecium) | MIC50 (Staphylococcus aureus [5]) | MIC90 (Staphylococcus aureus [5]) | MIC90 (Staphylococcus [9]) | MIC (Enterococcus) | MIC50 (Enterococcus) | MIC90 (Enterococcus) | MIC50 (Streptococcus pyogenes) | MIC90 (Streptococcus pyogenes) | MIC50 (Enterococcus faecalis [15]) | MIC90 (Enterococcus faecalis [15]) | MIC50 (Staphylococcus aureus [24]) | MIC90 (Staphylococcus aureus [24])
16 µg/mL: MIC90 (Moraxella catarrhalis) | MIC (Haemophilus influenzae [25])
8 µg/mL: MIC50 (Moraxella catarrhalis)

Cc1onc(-c2ccccc2)c1C(=O)N[C@@H]1C(=O)N2[C@@H]1SC(C)(C)[C@@H]2C(=O)O [OXACILLIN]
0.5 µg/mL: MIC50 (Streptococcus pyogenes) | MIC90 (Staphylococcus aureus [24])
> 64 µg/mL: MIC50 (Staphylococcus [1]) | MIC90 (Staphylococcus [1]) | MIC50 (Enterococcus faecium) | MIC90 (Enterococcus faecium) | MIC50 (Staphylococcus aureus [5]) | MIC90 (Staphylococcus aureus [5]) | MIC50 (Enterococcus) | MIC90 (Enterococcus) | MIC90 (Enterococcus faecalis [15])
8 µg/mL: MIC50 (Streptococcus pneumoniae [7]) | MIC90 (Streptococcus pyogenes)
0.015 µg/mL: MIC90 (Haemophilus influenzae [20])
< 0.008 µg/mL: MIC50 (Haemophilus influenzae [20])
0.125 µg/mL: MIC50 (Staphylococcus [9])
1 µg/mL: MIC90 (Staphylococcus [9])
0.06 µg/mL: MIC50 (Moraxella catarrhalis) | MIC90 (Moraxella catarrhalis)
16 µg/mL: MIC90 (Streptococcus pneumoniae [7]) | MIC50 (Enterococcus faecalis [15])
0.25 µg/mL: MIC50 (Staphylococcus aureus [24])

CN[C@H](CC(C)C)C(=O)N[C@H]1C(=O)N[C@@H](CC(N)=O)C(=O)N[C@H]2C(=O)N[C@H]3C(=O)N[C@H](C(=O)N[C@H](C(=O)O)c4cc(O)cc(O)c4-c4cc3ccc4O)[C@H](O)c3ccc(c(Cl)c3)Oc3cc2cc(c3O[C@@H]2O[C@H](CO)[C@@H](O)[C@H](O)[C@H]2O[C@H]2C[C@](C)(N)[C@H](O)[C@H](C)O2)Oc2ccc(cc2Cl)[C@H]1O [VANCOMYCIN]
4 µg/mL: MIC90 (Staphylococcus [9]) | MIC90 (Enterococcus faecalis [15])
2 µg/mL: MIC50 (Staphylococcus [1]) | MIC90 (Staphylococcus [1]) | MIC90 (Enterococcus faecium) | MIC90 (Staphylococcus aureus [5]) | MIC50 (Staphylococcus [9]) | MIC50 (Enterococcus faecalis [15])
0.5 µg/mL: MIC50 (Streptococcus pneumoniae [7])
1 µg/mL: MIC50 (Enterococcus faecium) | MIC50 (Staphylococcus aureus [5]) | MIC90 (Streptococcus pneumoniae [7]) | MIC50 (Streptococcus pyogenes) | MIC90 (Streptococcus pyogenes) | MIC50 (Staphylococcus aureus [24]) | MIC90 (Staphylococcus aureus [24])
> 64 µg/mL: MIC50 (Enterococcus) | MIC90 (Enterococcus) | MIC50 (Haemophilus influenzae [20]) | MIC90 (Haemophilus influenzae [20])
